# Measurements reported in patent US10376520B2, “Methods for the treatment of cardiovascular disorders” (Galapagos NV, priority 2015, dated 2019).
# Test system: RA patients
# Assay: Atherogenic index, Study 2 (RA patients, monotherapy)
# Assay type: in vivo, human
# Procedure: As used herein, the term ‘atherogenic index’ refers to
# Double-blind, placebo-controlled, monotherapy study in subjects with moderately to severely active RA who have an inadequate response to methotrexate (MTX) (oral or parenteral).
# Twelve weeks of treatment with Compound 1 (dosed as a [Compound 1:HCl:3H2O]) at 50 mg, 100 mg, or 200 mg q.d.; or placebo. At Week 12, all subjects on placebo and the subjects on the 50 mg dose who have not achieved 20% improvement in swollen joint count (SJC66) and tender joint count (TJC68) will be assigned to 100 mg q.d. in a blinded fashion and will continue treatment until Week 24. Subjects in the other groups will maintain their randomized treatment until Week 24.
# The atherogenic index has been identified to be a good predictor of cardiovascular disorders risks and is calculated as follows: […]
# [1] = 50 mg q.d. non responders switching to 100 mg q.d., week 1
# [2] = 50 mg q.d. non responders switching to 100 mg q.d., week 2
# [3] = 50 mg q.d. non responders switching to 100 mg q.d., week 4
# [4] = 50 mg q.d. non responders switching to 100 mg q.d., week 8
# [5] = 50 mg q.d. non responders switching to 100 mg q.d., week 12
# [6] = 50 mg q.d. non responders switching to 100 mg q.d., week 16
# [7] = 50 mg q.d. non responders switching to 100 mg q.d., week 20
# [8] = 50 mg q.d. non responders switching to 100 mg q.d., week 24
smiles,measurement,setting,value
"O=C(Nc1nc2cccc(-c3ccc(CN4CCS(=O)(=O)CC4)cc3)n2n1)C1CC1 [Compound 1, cyclopropanecarboxylic acid {5-[4-(1,1-dioxo-thiomorpholin-4-ylmethyl)-phenyl]-[1,2,4]triazolo[1,5-a]pyridin-2yl}-amide]",Atherogenic index Mean percentage CFB - 24 weeks results,[1],−0.49%
same,Atherogenic index Median CFB - 24 weeks results,[1],0.00 mmol/L
same,Atherogenic index Median percentage CFB - 24 weeks results,[1],0.00%
same,Atherogenic index Mean percentage CFB - 24 weeks results,[2],0.40%
same,Atherogenic index Median CFB - 24 weeks results,[2],-0.10 mmol/L
same,Atherogenic index Median percentage CFB - 24 weeks results,[2],−2.38%
same,Atherogenic index Median CFB - 24 weeks results,[3],-0.20 mmol/L
same,Atherogenic index Median percentage CFB - 24 weeks results,[3],−6.67%
same,Atherogenic index Mean percentage CFB - 24 weeks results,[4],3.03%
same,Atherogenic index Median CFB - 24 weeks results,[4],-0.20 mmol/L
same,Atherogenic index Median percentage CFB - 24 weeks results,[4],−6.82%
same,Atherogenic index Mean percentage CFB - 24 weeks results,[5],−2.71%
same,Atherogenic index Median CFB - 24 weeks results,[5],-0.20 mmol/L
same,Atherogenic index Median percentage CFB - 24 weeks results,[5],−5.88%
same,Atherogenic index Mean percentage CFB - 24 weeks results,[6],−3.31%
same,Atherogenic index Median CFB - 24 weeks results,[6],-0.20 mmol/L
same,Atherogenic index Median percentage CFB - 24 weeks results,[6],−5.00%
same,Atherogenic index Mean percentage CFB - 24 weeks results,[7],−3.58%
same,Atherogenic index Median CFB - 24 weeks results,[7],-0.20 mmol/L
same,Atherogenic index Median percentage CFB - 24 weeks results,[7],−5.88%
same,Atherogenic index Mean percentage CFB - 24 weeks results,[8],−7.04%
same,Atherogenic index Median CFB - 24 weeks results,[8],-0.30 mmol/L
same,Atherogenic index Median percentage CFB - 24 weeks results,[8],−9.97%
same,Atherogenic index Mean percentage CFB - 24 weeks results,"50 mg q.d. responders, week 1",−0.34%
same,Atherogenic index Median CFB - 24 weeks results,"50 mg q.d. responders, week 1",-0.10 mmol/L
same,Atherogenic index Mean percentage CFB - 24 weeks results,"50 mg q.d. responders, week 2",−3.56%
same,Atherogenic index Median CFB - 24 weeks results,"50 mg q.d. responders, week 2",-0.05 mmol/L
same,Atherogenic index Mean percentage CFB - 24 weeks results,"50 mg q.d. responders, week 4",−2.87%
same,Atherogenic index Median CFB - 24 weeks results,"50 mg q.d. responders, week 4",-0.25 mmol/L
same,Atherogenic index Median percentage CFB - 24 weeks results,"50 mg q.d. responders, week 4",−7.69%
same,Atherogenic index Mean percentage CFB - 24 weeks results,"50 mg q.d. responders, week 8",−2.06%
same,Atherogenic index Median CFB - 24 weeks results,"50 mg q.d. responders, week 8",-0.10 mmol/L
same,Atherogenic index Mean percentage CFB - 24 weeks results,"50 mg q.d. responders, week 12",0.89%
same,Atherogenic index Median CFB - 24 weeks results,"50 mg q.d. responders, week 12",-0.10 mmol/L
same,Atherogenic index Median percentage CFB - 24 weeks results,"50 mg q.d. responders, week 12",−2.56%
same,Atherogenic index Mean percentage CFB - 24 weeks results,"50 mg q.d. responders, week 16",1.59%
same,Atherogenic index Median CFB - 24 weeks results,"50 mg q.d. responders, week 16",0.00 mmol/L
same,Atherogenic index Median percentage CFB - 24 weeks results,"50 mg q.d. responders, week 16",0.00%
same,Atherogenic index Median CFB - 24 weeks results,"50 mg q.d. responders, week 20",-0.20 mmol/L
same,Atherogenic index Median percentage CFB - 24 weeks results,"50 mg q.d. responders, week 20",−4.04%
same,Atherogenic index Median CFB - 24 weeks results,"50 mg q.d. responders, week 24",-0.20 mmol/L
same,Atherogenic index Median percentage CFB - 24 weeks results,"50 mg q.d. responders, week 24",−5.77%
same,Atherogenic index Mean CFB - 12 weeks results,"50 mg q.d., week 1",0.00 mmol/L
same,Atherogenic index Mean percentage CFB - 12 weeks results,"50 mg q.d., week 1",−0.38%
same,Atherogenic index Median CFB - 12 weeks results,"50 mg q.d., week 1",0.00 mmol/L
same,Atherogenic index Median percentage CFB - 12 weeks results,"50 mg q.d., week 1",0.00%
same,Atherogenic index Mean CFB - 12 weeks results,"50 mg q.d., week 2",-0.10 mmol/L
same,Atherogenic index Median CFB - 12 weeks results,"50 mg q.d., week 2",-0.10 mmol/L
same,Atherogenic index Median percentage CFB - 12 weeks results,"50 mg q.d., week 2",−2.38%
same,Atherogenic index Mean CFB - 12 weeks results,"50 mg q.d., week 4",-0.13 mmol/L
same,Atherogenic index Mean percentage CFB - 12 weeks results,"50 mg q.d., week 4",−2.63%
same,Atherogenic index Median CFB - 12 weeks results,"50 mg q.d., week 4",-0.20 mmol/L
same,Atherogenic index Median percentage CFB - 12 weeks results,"50 mg q.d., week 4",−7.69%
same,Atherogenic index Mean CFB - 12 weeks results,"50 mg q.d., week 8",-0.03 mmol/L
same,Atherogenic index Mean percentage CFB - 12 weeks results,"50 mg q.d., week 8",−0.95%
same,Atherogenic index Median CFB - 12 weeks results,"50 mg q.d., week 8",-0.10 mmol/L
same,Atherogenic index Median percentage CFB - 12 weeks results,"50 mg q.d., week 8",−2.70%
same,Atherogenic index Mean CFB - 12 weeks results,"50 mg q.d., week 12",0.01 mmol/L
same,Atherogenic index Mean percentage CFB - 12 weeks results,"50 mg q.d., week 12",0.09%
same,Atherogenic index Median CFB - 12 weeks results,"50 mg q.d., week 12",-0.10 mmol/L
same,Atherogenic index Median percentage CFB - 12 weeks results,"50 mg q.d., week 12",−3.85%
same,Atherogenic index Mean CFB - 12 weeks results,"100 mg q.d., week 1",-0.05 mmol/L
same,Atherogenic index Mean percentage CFB - 12 weeks results,"100 mg q.d., week 1",−0.84%
same,Atherogenic index Mean percentage CFB - 24 weeks results,"100 mg q.d., week 1",−0.84%
same,Atherogenic index Median CFB - 12 weeks results,"100 mg q.d., week 1",0.00 mmol/L
same,Atherogenic index Median CFB - 24 weeks results,"100 mg q.d., week 1",0.00 mmol/L
same,Atherogenic index Median percentage CFB - 12 weeks results,"100 mg q.d., week 1",0.00%
same,Atherogenic index Median percentage CFB - 24 weeks results,"100 mg q.d., week 1",0.00%
same,Atherogenic index Mean CFB - 12 weeks results,"100 mg q.d., week 2",-0.11 mmol/L
same,Atherogenic index Mean percentage CFB - 12 weeks results,"100 mg q.d., week 2",−2.82%
same,Atherogenic index Mean percentage CFB - 24 weeks results,"100 mg q.d., week 2",−2.82%
same,Atherogenic index Median CFB - 12 weeks results,"100 mg q.d., week 2",-0.20 mmol/L
same,Atherogenic index Median CFB - 24 weeks results,"100 mg q.d., week 2",-0.20 mmol/L
same,Atherogenic index Median percentage CFB - 12 weeks results,"100 mg q.d., week 2",−6.25%
same,Atherogenic index Median percentage CFB - 24 weeks results,"100 mg q.d., week 2",−6.25%
same,Atherogenic index Mean CFB - 12 weeks results,"100 mg q.d., week 4",-0.19 mmol/L
same,Atherogenic index Mean percentage CFB - 12 weeks results,"100 mg q.d., week 4",−4.17%
same,Atherogenic index Mean percentage CFB - 24 weeks results,"100 mg q.d., week 4",−4.17%
